Laboratory results from PubChem BioAssay AID2305 (GlaxoSmithKline (GSK), 2010).

Test system: P. falciparum 3D7 growth, pLDH absorbance
Assay: P. falciparum 3D7 growth inhibition, dose response, strain 3D7 (AID 2305)

Point of comparison: `CN(C)CCCOc1cccc(CCNCc2cccc(Oc3ccc(Cl)cc3)c2)c1`, IC50 1010 nM. Against it:
- CCCNCc1ccc(-c2ccc(CN(CCOC)C(=O)c3cccc(C#N)c3)cc2)nc1 — within 1.5-fold, 1230 nM
- O=C(Nc1cccc(C2=NCCCN2)c1)Nc1cccc(C2=NCCCN2)c1 — 1.8-fold lower, 560 nM
- CCOc1ccc(C(=O)Nc2nonc2-c2ccc(OC)c(OC)c2)cc1 — within 1.5-fold, 870 nM
- Cc1ccc(C(NC(=O)Cc2ccccc2)c2ccc3cccnc3c2O)cc1 (stereo not drawn) — 1.6-fold lower, 620 nM
- Cc1cccc2[nH]c(-c3ccc(-c4ccc(CN5CCN(CCN6CCOCC6)CC5)cc4)s3)nc12 — 4.2-fold lower, 240 nM
- COCCCNC(=O)[C@H]1CNCCN1C(=O)c1ccccc1 — within 1.5-fold, 800 nM
- NC(=O)C1CCN(Cc2cccc(-c3cccc(-c4nc5ccc(C(F)(F)F)cc5[nH]4)c3)c2)CC1 — 1.6-fold lower, 640 nM
- Cc1cc(NC(=O)c2cccs2)ccc1OC1CCN(Cc2ccc(F)cc2)CC1 — 2.1-fold lower, 480 nM
- COc1cccc(NC(=O)NCCNc2ccnc(Nc3ccc(F)cc3)n2)c1 — within 1.5-fold, 920 nM
- Nc1ncc(-c2ccsc2)c2ccc(-c3cc(NCc4ccccc4)ncn3)cc12 — within 1.5-fold, 860 nM
- O=S(=O)(c1cc(Cl)c(Cl)cc1Cl)N1CCCCC(c2ccc(C(F)(F)F)cc2)=N1 — 5-fold lower, 200 nM
- Nc1nc(N)c2c(ccn2Cc2cc3c(cc2Cl)OCO3)n1 — within 1.5-fold, 760 nM
- CN1C(C)(C)CC(NC(=O)c2ccc(-c3cc4cc(Cl)c(Cl)cc4[nH]3)o2)CC1(C)C — within 1.5-fold, 1120 nM
- Clc1ccc(CNc2nc(NCCc3cnc[nH]3)nc(N3CCCC4CCCCC43)n2)cc1 (stereo not drawn) — 1.7-fold lower, 590 nM
- COc1cc(Cc2cnc3nc(N)nc(N)c3c2C)cc(OC)c1OC — 17-fold lower, 60 nM
- Cc1nnc2c(NC(=O)NC3CCCC3)cc3ccc(-c4cccc(CN5CCN(C)CC5)c4)cc3n12 — within 1.5-fold, 920 nM
- CC(C)(C)c1cc(NC2CC2)nc(-c2ccccn2)n1 — within 1.5-fold, 720 nM
- CC(=O)Nc1ccc(C(=O)Nc2cccc(-c3ccc(-c4nc5ccc(F)cc5[nH]4)s3)c2)cn1 — 4.4-fold lower, 230 nM
- Cc1ccc(NC(=O)c2nc(N3CCN(c4ccncc4)CC3)ccc2Cl)cc1F — within 1.5-fold, 810 nM
- CC1(C)N=C(N)N=C(N)N1OCc1nc(N)nc(Nc2ccccc2)n1 — 3.7-fold lower, 270 nM
- O=C(Nc1cccc(N2CCC(NCCCn3ccnc3)CC2)c1)c1cccc(C(F)(F)F)c1 — within 1.5-fold, 1110 nM
- Cc1ccc(CC(C)NCC(O)c2cccc(C(F)(F)F)c2)cc1F (stereo not drawn) — within 1.5-fold, 920 nM
- Cc1cc(N)nc2ccc(CNCCc3ccccc3Br)cc12 — 8.4-fold lower, 120 nM
- CCn1c(-c2nonc2N)nc2cnc(Oc3cccc(NC(=O)c4ccc(OCCN5CCCCC5)cc4)c3)cc21 — within 1.5-fold, 1060 nM
- OCCNc1nc(Nc2ccc(F)cc2)nc2ccccc12 — 6.3-fold lower, 160 nM
- c1cncc(CCNCc2ccc(-c3cccc(-c4nc5ccccc5[nH]4)c3)cc2)c1 — 6.3-fold lower, 160 nM
- Cn1nc(-c2ccccc2F)c2cc(C(=O)NC3CCN(Cc4ccccc4)CC3)sc21 — within 1.5-fold, 790 nM
- COc1ccc2nc(/C=C/c3cccc4ccc(C)nc34)[nH]c2c1 — within 1.5-fold, 790 nM
- Cc1cc(N[C@@H](Cc2ccccc2)C(=O)NCCOc2ccccc2)nc(NCCc2ccccn2)n1 — 1.5-fold higher, 1520 nM
- COc1ccc2nccc([C@@H](O)CN3CCC(NC(=O)COc4nc(SCc5ccc(F)cc5)nc5c4CCC5)CC3)c2c1 — 1.7-fold lower, 590 nM
- Cc1noc(-c2ccc(NC[C@@H](C)NC[C@H](O)c3cccc(Cl)c3)cc2)n1 — within 1.5-fold, 760 nM
- CCOC(=O)c1c(C)n(-c2ccccc2)c2ccc(O)cc12 — 2.1-fold lower, 470 nM
- Cc1cc(Cl)ccc1N(Cc1ccccc1)c1ccnc(Cl)n1 — within 1.5-fold, 860 nM
- COc1cc2c(cc1N(C(C)C)S(=O)(=O)c1sc3ccc(Cl)cc3c1C)CCNCC2 — within 1.5-fold, 1050 nM
- COCCOc1nc(N)nc2ncc(Cc3cc(OC)ccc3OC)c(C)c12 — 2.3-fold lower, 430 nM
- COc1cc2nccc(Nc3cccc(Oc4ccccc4)c3)c2cc1OC — 1.6-fold lower, 640 nM
- CC(C)(C)NS(=O)(=O)c1cc(C(=O)N2CCC(CCN3CCC(O)(c4cccc(C(F)(F)F)c4)CC3)(c3cccc(F)c3)CC2)c(Cl)cc1F — within 1.5-fold, 860 nM
- COCCNCc1ccc(-c2ccccc2CNC2CCN(Cc3ccccc3)CC2)cc1 — within 1.5-fold, 980 nM
- CC1CCN(C(=O)C(Cc2c[nH]c3ccccc23)NS(=O)(=O)c2ccc(Cl)cc2)CC1 (stereo not drawn) — within 1.5-fold, 720 nM
- COc1cc2c(cc1S(=O)(=O)c1ccc(NC(=O)c3ccc4ccccc4c3)cc1)CCN(C)CC2 — within 1.5-fold, 800 nM
- CC(C)C[C@H](NC(=O)[C@H](Cc1ccccc1)NC(=O)CCN1C(=O)COc2ccc(C(=O)O)cc21)C(=O)NC(CC1CCCCC1)C(O)CC(=O)NCCCn1ccnc1 (stereo partly drawn) — within 1.5-fold, 970 nM
- COc1ccc2nccc(NN=CC=Cc3ccccc3)c2c1 — within 1.5-fold, 740 nM
- CC(Oc1ccc(Cl)cc1)C(=O)N(C)C1CCN(CCCCCNC(=O)/C=C/c2ccc(Cl)c(Cl)c2)CC1 (stereo not drawn) — within 1.5-fold, 960 nM
- CCNc1cc(C(=O)N[C@@H](Cc2ccccc2)[C@H](O)CNCc2cccc(OC)c2C)cc(N2CCCCS2(=O)=O)c1 — 1.9-fold lower, 520 nM
- O=c1[nH]ccc2nc(N[C@@H]3CCNC3)nc(Nc3ccc4c(c3)S(=O)(=O)CC4)c12 — 2.7-fold lower, 380 nM
- CC(C)CCN1CCC(Oc2ccc(NC(=O)c3ccsc3)cc2Cl)CC1 — within 1.5-fold, 1040 nM
- CC(C)Cc1nc(N)nc(N)c1-c1ccc(Cl)cc1 — 7.2-fold lower, 140 nM
- O=C(COc1ccc(F)cc1)NC1CCN(c2ccnc3cc(Cl)ccc23)C1 (stereo not drawn) — 3.7-fold lower, 270 nM
- Cc1ccc(O)c(-c2cc(C(=O)Nc3ccc(S(=O)(=O)N4CCCCCC4)cc3)[nH]n2)c1 — within 1.5-fold, 710 nM
- CCOc1cc(C(=O)NC2CCN(Cc3ccccc3)C2)ccc1-c1nc2ccc(Cl)cc2[nH]1 (stereo not drawn) — the same, 1010 nM
- O=C(/C=C/c1cc(C(F)(F)F)ccc1F)NCCCCCN1CCC(c2c[nH]c3ccccc23)CC1 — within 1.5-fold, 1130 nM
- CCN1CCN(c2cc(C)c3cc(NC(=O)c4ccc([N+](=O)[O-])c(C)c4)ccc3n2)CC1 — 1.6-fold lower, 650 nM
- O=S(=O)(NCCN1CCCC1)c1cccc(-c2ccccc2CNC2Cc3ccccc3C2)c1 — within 1.5-fold, 740 nM
- COc1cc2nc(NCCCOC(C)C)n3nc(-c4ccccc4)nc3c2cc1OC — 5-fold lower, 200 nM
- CCC(C)c1cnc2nc(N)nc(N)c2c1C (stereo not drawn) — 2.3-fold lower, 440 nM
- COc1cc(NC(=O)N2CCOC(CCN3CCC4(CCc5ccccc54)CC3)(c3ccc(Cl)c(Cl)c3)C2)cc(OC)c1 (stereo not drawn) — within 1.5-fold, 820 nM
- CC(=NNC(=S)NCCc1ccccc1)c1ccccn1 — 4.6-fold lower, 220 nM
- NC(N)=Nc1ccc(NC(=O)Nc2ccc(N=C(N)N)cc2)cc1 — 2.6-fold lower, 390 nM
- COc1ccc(F)cc1-c1ccccc1CNC(=O)c1cnn(-c2ccc([N+](=O)[O-])cc2)c1C(F)(F)F — 1.7-fold lower, 600 nM
- COc1ccc(CNCc2cccc(-c3cccc(-c4nc5ccccc5[nH]4)c3)c2)cc1 — 2.7-fold lower, 370 nM
- CCCCCCCCNCc1c(O)ccc2ccccc12 — within 1.5-fold, 740 nM
- CCN1CCC(NCc2ccc(-c3ccc(Cl)cc3)cc2)CC1 — within 1.5-fold, 1020 nM
- O=C(Nc1cccc(C(F)(F)F)c1)NC1CCN(c2ccnc3ccccc23)C1 (stereo not drawn) — 3.5-fold lower, 290 nM
- O=c1[nH]c2ccc(Nc3nccc(NCCc4ccccc4)n3)cc2[nH]1 — within 1.5-fold, 1210 nM
- Cc1ccc(-n2c(Sc3ncnc4sccc34)nnc2N2CCCC2)cc1 — 3.9-fold lower, 260 nM
- Cc1cc(Nc2cccc(C(F)(F)F)c2)nc(N)n1 — within 1.5-fold, 790 nM
- O=C(O)C[C@H](NC(=O)c1cc(-c2ccc3c(c2)OCO3)no1)C(=O)O (tested in a mixture with another compound) — 5.3-fold lower, 190 nM
- Oc1[nH]c2ccccc2c1N=NC(=S)N1CCOCC1 — within 1.5-fold, 910 nM
- O=C1C[C@@H]([S@@](=O)Cc2nccs2)N1CCOCCCCCCc1ccc(Cl)cc1 — within 1.5-fold, 1020 nM
- CC(C)(C)c1cc(NC(=O)c2ccc(Cl)c([N+](=O)[O-])c2)cc(C(C)(C)C)c1 — within 1.5-fold, 1030 nM
- Fc1ccc(CNc2ccc3ncc(-c4cccnc4)n3n2)cc1 — within 1.5-fold, 930 nM
- O=c1cc(NCCCCNCc2cccc(Br)c2)[nH]c2ccccc12 — within 1.5-fold, 730 nM
